Experimental data reported in ChEMBL document CHEMBL1828549, “Novel C-4'' modified azithromycin analogs with remarkably enhanced activity against erythromycin-resistant Streptococcus pneumoniae: the synthesis and antimicrobial evaluation” (2011).
In brackets after ≈: the same amount, converted by molar mass.

What was measured:
Type in all cases: functional
[1] = tested on: Streptococcus pneumoniae; assay: Antibacterial activity against erythromycin-susceptible Streptococcus pneumoniae ATCC 49619 by the broth microdilution method
[2] = tested on: Streptococcus pneumoniae; assay: Antibacterial activity against erythromycin-resistant Streptococcus pneumoniae B1 expressing erm gene by the broth microdilution method
[3] = tested on: Staphylococcus aureus; assay: Antibacterial activity against […] Staphylococcus aureus ATCC 29213 by the broth microdilution method
[4] = tested on: Streptococcus pneumoniae; assay: Antibacterial activity against erythromycin-resistant Streptococcus pneumoniae A22072 expressing mef gene by the broth microdilution method
[5] = tested on: Staphylococcus aureus; assay: Antibacterial activity against penicillin-resistant Staphylococcus aureus by the broth microdilution method
[6] = tested on: Staphylococcus aureus; assay: Antibacterial activity against erythromycin-susceptible Staphylococcus aureus ATCC 25923 by the broth microdilution method
[7] = tested on: Streptococcus pneumoniae; assay: Antibacterial activity against erythromycin-resistant Streptococcus pneumoniae AB11 expressing erm and mef gene by the broth microdilution method

Row | Compound | MIC [1] [µg/mL] | MIC [2] [µg/mL] | MIC [3] [µg/mL] | MIC [4] [µg/mL] | MIC [5] [µg/mL] | MIC [6] [µg/mL] | MIC [7] [µg/mL]
1 | CC[C@H]1OC(=O)[C@H](C)[C@@H](O[C@H]2C[C@@](C)(OC)[C@@H](OC(=O)NNC(=O)c3ccc(OC)c(OC)c3)[C@H](C)O2)[C@H](C)[C@@H](O[C@@H]2O[C@H](C)C[C@H](N(C)C)[C@H]2O)[C@](C)(O)C[C@@H](C)CN(C)[C@H](C)[C@H]2OC(=O)O[C@@]21C | 1 (≈ 1 µM) | 32 (≈ 32.1 µM) | 4 (≈ 4.01 µM) | 0.25 (≈ 0.251 µM) | 1 (≈ 1 µM) | 4 (≈ 4.01 µM) | 64 (≈ 64.2 µM)
2 | CC[C@H]1OC(=O)[C@H](C)[C@@H](O[C@H]2C[C@@](C)(OC)[C@@H](OC(=O)NCCNC(=O)c3ccc([N+](=O)[O-])cc3)[C@H](C)O2)[C@H](C)[C@@H](O[C@@H]2O[C@H](C)C[C@H](N(C)C)[C@H]2O)[C@](C)(O)C[C@@H](C)CN(C)[C@H](C)[C@H]2OC(=O)O[C@@]21C | 0.5 (≈ 0.495 µM) | 4 (≈ 3.96 µM) | 16 (≈ 15.8 µM) | 0.5 (≈ 0.495 µM) | 1 (≈ 0.99 µM) | 4 (≈ 3.96 µM) | 64 (≈ 63.4 µM)
3 | CC[C@H]1OC(=O)[C@H](C)[C@@H](O[C@H]2C[C@@](C)(OC)[C@@H](OC(=O)NNC(=O)c3ccc(F)cc3)[C@H](C)O2)[C@H](C)[C@@H](O[C@@H]2O[C@H](C)C[C@H](N(C)C)[C@H]2O)[C@](C)(O)C[C@@H](C)CN(C)[C@H](C)[C@H]2OC(=O)O[C@@]21C | 4 (≈ 4.19 µM) | 32 (≈ 33.5 µM) | 32 (≈ 33.5 µM) | 1 (≈ 1.05 µM) | 4 (≈ 4.19 µM) | 4 (≈ 4.19 µM) | 64 (≈ 67 µM)
4 | CC[C@H]1OC(=O)[C@H](C)[C@@H](O[C@H]2C[C@@](C)(OC)[C@@H](OC(=O)NNC(=O)c3ccc(Br)cc3)[C@H](C)O2)[C@H](C)[C@@H](O[C@@H]2O[C@H](C)C[C@H](N(C)C)[C@H]2O)[C@](C)(O)C[C@@H](C)CN(C)[C@H](C)[C@H]2OC(=O)O[C@@]21C | 1 (≈ 0.984 µM) | 4 (≈ 3.94 µM) | 1 (≈ 0.984 µM) | 0.12 (≈ 0.118 µM) | 4 (≈ 3.94 µM) | 2 (≈ 1.97 µM) | 16 (≈ 15.7 µM)
5 | CC[C@H]1OC(=O)[C@H](C)[C@@H](O[C@H]2C[C@@](C)(OC)[C@@H](OC(=O)NNC(=O)c3cc([N+](=O)[O-])cc([N+](=O)[O-])c3)[C@H](C)O2)[C@H](C)[C@@H](O[C@@H]2O[C@H](C)C[C@H](N(C)C)[C@H]2O)[C@](C)(O)C[C@@H](C)CN(C)[C@H](C)[C@H]2OC(=O)O[C@@]21C | 0.5 (≈ 0.487 µM) | 16 (≈ 15.6 µM) | 4 (≈ 3.89 µM) | 0.25 (≈ 0.243 µM) | 4 (≈ 3.89 µM) | 4 (≈ 3.89 µM) | 32 (≈ 31.2 µM)
6 | CC[C@H]1OC(=O)[C@H](C)[C@@H](O[C@H]2C[C@@](C)(OC)[C@@H](OC(=O)NCCCCNC(=O)c3ccc(Cl)cc3Cl)[C@H](C)O2)[C@H](C)[C@@H](O[C@@H]2O[C@H](C)C[C@H](N(C)C)[C@H]2O)[C@](C)(O)C[C@@H](C)CN(C)[C@H](C)[C@H]2OC(=O)O[C@@]21C | 1 (≈ 0.941 µM) | 4 (≈ 3.77 µM) | 16 (≈ 15.1 µM) | 1 (≈ 0.941 µM) | 64 (≈ 60.3 µM) | 2 (≈ 1.88 µM) | 16 (≈ 15.1 µM)
7 | CC[C@H]1OC(=O)[C@H](C)[C@@H](O[C@H]2C[C@@](C)(OC)[C@@H](OC(=O)NCCNC(=O)c3ccc(Br)cc3)[C@H](C)O2)[C@H](C)[C@@H](O[C@@H]2O[C@H](C)C[C@H](N(C)C)[C@H]2O)[C@](C)(O)C[C@@H](C)CN(C)[C@H](C)[C@H]2OC(=O)O[C@@]21C | 0.5 (≈ 0.479 µM) | 2 (≈ 1.92 µM) | 4 (≈ 3.83 µM) | 0.25 (≈ 0.239 µM) | 2 (≈ 1.92 µM) | 1 (≈ 0.958 µM) | 8 (≈ 7.66 µM)
8 | CC[C@H]1OC(=O)[C@H](C)[C@@H](O[C@H]2C[C@@](C)(OC)[C@@H](OC(=O)NCCCCNC(=O)c3ccc([N+](=O)[O-])cc3)[C@H](C)O2)[C@H](C)[C@@H](O[C@@H]2O[C@H](C)C[C@H](N(C)C)[C@H]2O)[C@](C)(O)C[C@@H](C)CN(C)[C@H](C)[C@H]2OC(=O)O[C@@]21C | 0.12 (≈ 0.116 µM) | 2 (≈ 1.93 µM) | 4 (≈ 3.85 µM) | 0.5 (≈ 0.482 µM) | 32 (≈ 30.8 µM) | 4 (≈ 3.85 µM) | 16 (≈ 15.4 µM)
9 | CC[C@H]1OC(=O)[C@H](C)[C@@H](O[C@H]2C[C@@](C)(OC)[C@@H](OC(=O)NCCNC(=O)c3ccccc3OC)[C@H](C)O2)[C@H](C)[C@@H](O[C@@H]2O[C@H](C)C[C@H](N(C)C)[C@H]2O)[C@](C)(O)C[C@@H](C)CN(C)[C@H](C)[C@H]2OC(=O)O[C@@]21C | 0.5 (≈ 0.502 µM) | 32 (≈ 32.2 µM) | 8 (≈ 8.04 µM) | 8 (≈ 8.04 µM) | 64 (≈ 64.3 µM) | 4 (≈ 4.02 µM) | 64 (≈ 64.3 µM)
10 | CC[C@H]1OC(=O)[C@H](C)[C@@H](O[C@H]2C[C@@](C)(OC)[C@@H](OC(=O)NCCNC(=O)c3ccc(Cl)cc3Cl)[C@H](C)O2)[C@H](C)[C@@H](O[C@@H]2O[C@H](C)C[C@H](N(C)C)[C@H]2O)[C@](C)(O)C[C@@H](C)CN(C)[C@H](C)[C@H]2OC(=O)O[C@@]21C | 0.5 (≈ 0.484 µM) | 16 (≈ 15.5 µM) | 8 (≈ 7.74 µM) | 2 (≈ 1.93 µM) | 4 (≈ 3.87 µM) | 4 (≈ 3.87 µM) | 64 (≈ 61.9 µM)
